The target in this assay is T1, Ikkb (Homo sapiens, UniProt O14920).
T1 sequence (O14920 1-756): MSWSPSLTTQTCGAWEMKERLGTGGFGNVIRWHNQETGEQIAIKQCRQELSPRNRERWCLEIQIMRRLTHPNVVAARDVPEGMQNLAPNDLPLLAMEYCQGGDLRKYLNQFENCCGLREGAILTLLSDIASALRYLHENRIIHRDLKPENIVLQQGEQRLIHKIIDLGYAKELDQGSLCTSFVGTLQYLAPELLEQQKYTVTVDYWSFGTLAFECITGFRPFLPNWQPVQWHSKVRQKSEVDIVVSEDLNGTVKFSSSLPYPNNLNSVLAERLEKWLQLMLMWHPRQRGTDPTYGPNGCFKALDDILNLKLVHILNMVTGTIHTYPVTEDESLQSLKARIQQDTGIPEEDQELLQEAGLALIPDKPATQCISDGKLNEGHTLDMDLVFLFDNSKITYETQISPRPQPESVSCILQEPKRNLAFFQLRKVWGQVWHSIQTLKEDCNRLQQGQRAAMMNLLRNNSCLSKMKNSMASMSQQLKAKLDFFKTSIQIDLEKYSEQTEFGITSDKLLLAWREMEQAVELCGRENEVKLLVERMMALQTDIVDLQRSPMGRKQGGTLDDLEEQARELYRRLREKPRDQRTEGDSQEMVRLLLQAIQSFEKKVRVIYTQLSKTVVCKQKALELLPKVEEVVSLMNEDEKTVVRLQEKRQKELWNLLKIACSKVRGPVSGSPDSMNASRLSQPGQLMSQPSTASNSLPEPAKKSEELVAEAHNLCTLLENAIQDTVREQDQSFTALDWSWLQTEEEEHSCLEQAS
The experiment in a line: LabChip (Caliper) kinase assay, Ikkb. The format is biochemical. Particulars: for inhibition at 0.01 µM: compound at 10 nM; for inhibition at 0.01 µM / inhibition at 0.1 µM: read-out: remaining kinase activity (in %) / percentage of inhibition; for inhibition at 0.1 µM: compound at 100 nM; for IC50: ATP at Km, read-out: CI50 (the source's name). Here is the method:
The analysis of kinase activity described here was performed using LabChip (Caliper Life Sciences), specifically the Caliper LC3000 and the EZ Reader II instruments.
The kinase assay used measures the conversion of a fluorescent peptide (substrate) to a phosphorylated product. The reaction mixture, in a microplate well, is introduced by a capillary in a chip where the non-phosphorylated substrate and the phosphorylated product are separated by […]. The intensity of the fluorescent signal over time is related to the reaction progress. The phosphorylated product migrates quicker than the non-phosphorylated substrate and the signals of the two forms of the peptide appear as differentiated peaks. The Caliper determines the peak height and calculates the ratio of product to the peak sum (P/(P+S)). This value is used to compare wells with compounds and wells with controls and thus determine the % of inhibition for the given product.
The followings kinases were used for the enzymatic inhibition studies, between brackets the value of the Michaelis-Menten constant, Km, of the ATP (Adenosine triphosphate) for each kinase, in μM: obtained from Carna Biosciences: MAPKAPK2 (4.6), AurA (3.6), AurB (5), PKCζ (3.8), RSK1 (23.3), PRAK (5), Erk1 (33.4), PKD2 (32.1), CK1d (16.3), CHK1 (33), ABL (61.7), FYN (36), LYNa (17), CHK2 (57.8), MET (79.5), LCK (28.5), SRC (38), GSK3β (7.3), Erk2 (62.1), PKACα (1.7), AKT2 (186.1), INSR (871.8), p38a (396.5), AKT1(48), MSK1 (21.2), PKCβ2 (84.8), ROCK2 (3.3), PIM2 (4.9), AMPK (38.6), KDR (164.8), IRAK4 (196.5), SGK1 (121.8), SYK (33.5); obtained from Invitrogen: CDK2 (57.6), BTK (123), HGK (80); obtained from Upstate: MST2 (36.6), PKGα (16), PAK2 (1.9), IGF1R (320), FGFR1 (171), MARK1 (33), CAMK2δ (22.4), c-TAK1 (66), DYRK1a (18.1), CaMK4 (3.9), FLT3 (350), c-Raf (6.2), P70S6K (95).
The compounds were dissolved in 100% DMSO and were diluted at 25 times the final concentration desired for the assay. In the case of the determination of Cl50, serial dilutions were made to reach eight concentrations and give rise to the inhibition curve. 1 μL of each concentration is transferred, in duplicate to a 384-well microplate. 12 μL of enzymatic buffer is added to each well containing purified kinase (several suppliers as indicated above), 100 mM HEPES, pH 7.5, 1 mM DTT (Calbiochem), 0.002% Brij-35 (Sigma) and also in presence of 10 mM MgCl2 as cofactor, except for INSR and IRAK4 wherein 10 mM MnCl2 is used instead of MgCl2. For the kinases CAMK26 and CAMK4, 1 mM CaCl2 and 6.7 μg/mL of calmodulin are also added. For KDR kinase, 0.05% of the CHAPSO detergent is added. For the c-Raf kinase, 10 mM MnCl2 is added. For PKCβ2 0.02 μg/mL of PS/PMA is added. For PKGα se 10 μM of cGMP (cyclic guanosine monophosphate) is added. The compound and the enzyme are left for 15 minutes preincubation and, then, the following are added to each well: 12 μL of peptide buffer/ATP containing 100 mM HEPES, pH 7.5, 1.5 μM peptide marker with fluorescein (specific for the corresponding kinase), ATP (at concentration KM), and 0.002% Brij-35 to start the reaction. Generally, the reactions are incubated for 1-1.5 h at ambient temperature to obtain an adequate conversion (15-40%) of the peptide to the phosphorylated product. The reactions were ended by the addition of 45 μL of buffer containing 0 mM EDTA. The microplates were read by the LabChip 3000 using a 12-channel LabChip. The P/(P+S) values were obtained as described above and the CI50 curves were generated using XIfit.
Table 9a has the 0150 data obtained in pairs of compound-kinase selected from the compounds of formula (VII), (VIII), (IX), (XVI), (XVII) and (XVIII) after taking inhibition measurements at 100 nM and 10 nM. Those couples that provide >70% of inhibition at 10 nM were consider for measuring its IC50. […]

The structures appear in SMILES notation.

On to `C[C@@H]1O[C@@H](n2c3ccccc3c3c4c(c5c6ccccc6[nH]c5c32)C(=O)NC4=O)[C@H](O)[C@H](O)[C@H]1O` [formula (III), N^13-1′-β-L-rhamnosylarcyriaflavin], for which the inhibition at 0.01 µM is -10% and the inhibition at 0.1 µM worked out at 32%.

Turning to `C[C@@H]1O[C@@H](n2c3ccccc3c3c4c(c5c6ccccc6[nH]c5c32)C(=O)NC4=O)C[C@H](O)[C@H]1O` [formula (IV), N^13-1′-β-L-olivosylarcyriaflavin], the inhibition at 0.01 µM amounted to 9% and the inhibition at 0.1 µM worked out at 60%.

As to `C[C@]12O[C@H](C[C@@H](O)[C@H]1O)n1c3ccccc3c3c4c(c5c6ccccc6n2c5c31)C(=O)NC4=O` [formula (IX), N^12-5′(S)-N^13-1′-(R)-L-digitoxosylarcyriaflavin], the IC50 is greater than 10 nM.

As for `C[C@@H]1O[C@@H](n2c3ccccc3c3c4c(c5c6ccccc6[nH]c5c32)C(=O)NC4=O)C[C@@H](O)[C@H]1O` [formula (V), N^13-1′-β-L-digitoxosylarcyriaflavin], the inhibition at 0.01 µM came out at 37% and the inhibition at 0.1 µM amounted to 76%.

Consider `C[C@H]1O[C@@H](n2c3ccccc3c3c4c(c5c6ccccc6[nH]c5c32)C(=O)NC4=O)C[C@@H](O)[C@@H]1O` [formula (VI), N^13-1′-β-D-olivosylarcyriaflavin], for which the inhibition at 0.01 µM stood at 7% and the inhibition at 0.1 µM worked out at 50%.

As to `C[C@]12O[C@H]([C@H](O)[C@H](O)[C@H]1O)n1c3ccccc3c3c4c(c5c6ccccc6n2c5c31)C(=O)NC4=O` [formula (VII), N^12-5′(S)-N^13-1′-(R)-L-rhamnosylarcyriaflavin], the IC50 worked out at 0.17 nM.

For the compound `C[C@]12O[C@H](C[C@H](O)[C@H]1O)n1c3ccccc3c3c4c(c5c6ccccc6n2c5c31)C(=O)NC4=O` [formula (VIII), N^12-5′(S)-N^13-1′-(R)-L-olivosylarcyriaflavin], the IC50 is less than 0.03 nM.

On to `C[C@@H]1O[C@@H](n2c3ccccc3c3c4c(c5c6ccccc6[nH]c5c32)CNC4=O)[C@H](O)[C@H](O)[C@H]1O` [formula (XII), N^13-1′-β-L-rhamnosyl-k252c], for which the inhibition at 0.01 µM was -5% and the inhibition at 0.1 µM was 12%.

In the case of `C[C@@H]1O[C@@H](n2c3ccccc3c3c4c(c5c6ccccc6[nH]c5c32)CNC4=O)C[C@H](O)[C@H]1O` [formula (XIII), N^13-1′-β-L-olivosyl-k252c], the inhibition at 0.01 µM is -5% and the inhibition at 0.1 µM came out at 33%.

For the compound `C[C@@H]1O[C@@H](n2c3ccccc3c3c4c(c5c6ccccc6[nH]c5c32)CNC4=O)C[C@@H](O)[C@H]1O` [formula (XIV), N^13-1′-β-L-digitoxosyl-k252c], the inhibition at 0.01 µM is 27% and the inhibition at 0.1 µM turned out to be 24%.

Turning to `C[C@H]1O[C@@H](n2c3ccccc3c3c4c(c5c6ccccc6[nH]c5c32)CNC4=O)C[C@@H](O)[C@@H]1O` [formula (XV), N^13-1′-β-D-olivosyl-k252c], the inhibition at 0.01 µM was -5% and the inhibition at 0.1 µM came out at 16%.

In the case of `C[C@]12O[C@H](C[C@@H](O)[C@H]1O)n1c3ccccc3c3c4c(c5c6ccccc6n2c5c31)CNC4=O` [formula (XVIII), N^12-5′(S)-N^13-1′-(R)-L-digitoxosyl-k252c], the IC50 was greater than 100 nM.
